Test results as given in patent publication US20260184710A1, “CASITAS B-LINEAGE LYMPHOMA PROTOONCOGENE B (CBL-B) DEGRADING COMPOUNDS AND ASSOCIATED METHODS OF USE” (Arvinas Operations, Inc., priority 2022, published 2026).

Target: T1, Cbl-b (Homo sapiens, UniProt Q13191)
T1 construct: Cbl-b-HiBit KI Jurkat Cells were purchased from Promega; host or cells: Cbl-b-HiBiT knock-in Jurkat cells
Assay: Cbl-b Degradation Method B (Nano-Glo HiBiT lytic detection)
Assay type: cell-based
Conditions: Cbl-b-HiBit KI Jurkat Cells, incubated at least 6-24 hours; for DC50: half maximal degradation, read-out: Cbl-b Degredation Method B IC50; for Dmax: maximum degradation observed, read-out: Cbl-b Degredation Method B Dmax (%)
Procedure: Cbl-b Degradation Method B [table] Cbl-b-HiBit KI Jurkat Cells were purchased from Promega, and cell media consisted of RPMI 1640 with 10% […] and 1% pen/strep. The cells were counted, measured for viability, and 35 μL of the cell solution was seeded into 384 well flat bottom plates at a ratio of 20,000 cells per 35 μL. After which, the plates were incubated for ˜24 hours at 37° C. and 5% CO2. Compounds were ordered from Evotec in a 384 well plate at a 1 mM top concentration in DMSO and serially diluted 1:3 in DMSO for an 11-point dose response. Using the Bravo instrument, 1 uL of compound solution or DMSO was transferred to 125 uL of media. Each well was treated with 5 μL of compound plus media mixture or DMO and subsequently incubated for at least 6-24 hours at 37° C. and 5% CO2. After incubation, 30 μL of either NanoGlo media was added to each cell, and the plates read on the Synergy Neo2 machine. The concentration of an exemplary compound that leads to half maximal degradation (DC50) as well as the maximum degradation observed (Dmax, conventionally expressed as a percentage of control) is shown below in Table 2.

T1 sequence (Q13191 whole entry): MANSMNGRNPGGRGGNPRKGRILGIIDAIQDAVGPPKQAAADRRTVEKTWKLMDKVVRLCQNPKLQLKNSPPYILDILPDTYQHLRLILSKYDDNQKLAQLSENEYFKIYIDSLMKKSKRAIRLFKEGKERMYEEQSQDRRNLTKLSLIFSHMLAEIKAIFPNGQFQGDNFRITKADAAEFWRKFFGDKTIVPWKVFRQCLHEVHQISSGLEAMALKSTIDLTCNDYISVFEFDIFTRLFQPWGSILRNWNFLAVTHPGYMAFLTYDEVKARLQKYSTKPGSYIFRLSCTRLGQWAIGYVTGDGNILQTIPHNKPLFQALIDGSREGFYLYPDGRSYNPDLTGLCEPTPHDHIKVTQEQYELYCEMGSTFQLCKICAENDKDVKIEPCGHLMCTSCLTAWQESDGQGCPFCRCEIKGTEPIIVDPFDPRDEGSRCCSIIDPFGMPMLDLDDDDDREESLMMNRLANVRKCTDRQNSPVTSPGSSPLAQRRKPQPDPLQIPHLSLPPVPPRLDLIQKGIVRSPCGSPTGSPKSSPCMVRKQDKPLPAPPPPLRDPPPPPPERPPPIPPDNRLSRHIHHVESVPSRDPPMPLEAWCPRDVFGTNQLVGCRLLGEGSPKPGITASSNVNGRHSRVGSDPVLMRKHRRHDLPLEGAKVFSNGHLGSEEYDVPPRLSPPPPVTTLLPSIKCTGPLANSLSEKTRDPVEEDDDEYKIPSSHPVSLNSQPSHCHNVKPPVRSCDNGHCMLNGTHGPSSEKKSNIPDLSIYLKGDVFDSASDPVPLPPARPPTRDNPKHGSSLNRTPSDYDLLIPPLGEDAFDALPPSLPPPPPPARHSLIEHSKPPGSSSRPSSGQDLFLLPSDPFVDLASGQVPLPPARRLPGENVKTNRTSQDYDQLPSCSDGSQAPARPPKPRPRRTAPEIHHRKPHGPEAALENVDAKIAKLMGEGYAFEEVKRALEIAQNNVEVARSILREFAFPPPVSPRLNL

| SMILES | DC50 [nM] | Dmax [%] |
| --- | --- | --- |
| Cn1cnnc1CC1(c2cccc(N3Cc4c(cc(CNC5CC(Oc6ccc7c(c6)C(=O)N(C6CCC(=O)NC6=O)C7=O)C5)cc4C(F)(F)F)C3=O)c2)COC1 (stereo not drawn) [Example 37, 2-(2,6-dioxopiperidin-3-yl)-5-[3-({[2-(3-{3-[(4-methyl-4H-1,2,4-triazol-3-yl)methyl]oxetan-3-yl}phenyl)-3-oxo-7-(trifluoromethyl)-2,3-dihydro-1H-isoindol-5-yl]methyl}amino)cyclobutoxy]-2,3-dihydro-1H-isoindole-1,3-dione] | > 500 |  |
| Cn1cnnc1CC1(c2cccc(N3Cc4c(cc(CN5CCC(CCCN6CCN(c7ccc8c(c7)C(=O)N(C7CCC(=O)NC7=O)C8=O)CC6)CC5)cc4C(F)(F)F)C3=O)c2)COC1 (stereo not drawn) [Example 61, 2-(2,6-dioxopiperidin-3-yl)-5-{4-[3-(1-{[2-(3-{3-[(4-methyl-4H-1,2,4-triazol-3-yl)methyl]oxetan-3-yl}phenyl)-3-oxo-7-(trifluoromethyl)-2,3-dihydro-1H-isoindol-5-yl]methyl}piperidin-4-yl)propyl]piperazin-1-yl}-2,3-dihydro-1H-isoindole-1,3-dione] | > 500 |  |
| Cn1cnnc1CC1(c2cccc(N3Cc4c(cc(CN5CCC(CCN6CCN(c7ccc8c(c7)C(=O)N(C7CCC(=O)NC7=O)C8=O)CC6)CC5)cc4C(F)(F)F)C3=O)c2)COC1 (stereo not drawn) [Example 39, 2-(2,6-dioxopiperidin-3-yl)-5-{4-[2-(1-{[2-(3-{3-[(4-methyl-4H-1,2,4-triazol-3-yl)methyl]oxetan-3-yl}phenyl)-3-oxo-7-(trifluoromethyl)-2,3-dihydro-1H-isoindol-5-yl]methyl}piperidin-4-yl)ethyl]piperazin-1-yl}-2,3-dihydro-1H-isoindole-1,3-dione] | > 500 |  |
| Cc1cc(N2CCC(CN3CCC4(CC3)CN(c3cc5c(c(C(F)(F)F)c3)CN(c3cccc(C6(Cc7nncn7C)COC6)c3)C5=O)C4)CC2)c(F)c2c1C(=O)N(C1CCC(=O)NC1=O)C2 (stereo not drawn) [Example 12, 3-{4-fluoro-7-methyl-5-[4-({2-[2-(3-{3-[(4-methyl-4H-1,2,4-triazol-3-yl)methyl]oxetan-3-yl}phenyl)-3-oxo-7-(trifluoromethyl)-2,3-dihydro-1H-isoindol-5-yl]-2,7-diazaspiro [3.5]nonan-7-yl}methyl)piperidin-1-yl]-1-oxo-2,3-dihydro-1H-isoindol-2-yl}piperidine-2,6-dione] | < 5 | > 70 |
| Cn1cnnc1CC1(c2cccc(N3Cc4c(cc(CN5CCN(c6ccc7c(c6)CN(C6CCC(=O)NC6=O)C7=O)CC5)cc4C(F)(F)F)C3=O)c2)COC1 (stereo not drawn) [Example 41, 3-[5-(4-{[2-(3-{3-[(4-methyl-4H-1,2,4-triazol-3-yl)methyl]oxetan-3-yl}phenyl)-3-oxo-7-(trifluoromethyl)-2,3-dihydro-1H-isoindol-5-yl]methyl}piperazin-1-yl)-1-oxo-2,3-dihydro-1H-isoindol-2-yl]piperidine-2,6-dione] | 5 to 50 | > 70 |
| Cn1cnnc1CC1(c2cccc(N3Cc4c(cc(CN5CCC(CN6CCC7(CC6)CN(c6cccc8c6CN(C6CCC(=O)NC6=O)C8=O)C7)CC5)cc4C(F)(F)F)C3=O)c2)COC1 (stereo not drawn) [Example 65, 3-(4-{7-[(1-{[2-(3-{3-[(4-methyl-4H-1,2,4-triazol-3-yl)methyl]oxetan-3-yl}phenyl)-3-oxo-7-(trifluoromethyl)-2,3-dihydro-1H-isoindol-5-yl]methyl}piperidin-4-yl)methyl]-2,7-diazaspiro[3.5]nonan-2-yl}-1-oxo-2,3-dihydro-1H-isoindol-2-yl)piperidine-2,6-dione] | > 500 |  |
| CC1c2nc(N3CCC(OC4CCC(CN5CC6CCC(C5)N6c5cc6c(c(C(F)(F)F)c5)CN(c5cccc(C7(Cc8nncn8C)CC(C#N)C7)c5)C6=O)CC4)CC3)ccc2C(=O)N1C1CCC(=O)NC1=O (stereo not drawn) [Example 183, (1r,3r)-3-[(4-methyl-4H-1,2,4-triazol-3-yl)methyl]-3-{3-[1-oxo-6-(3-{[(1r,4r)-4-({1-[6-(2,6-dioxopiperidin-3-yl)-7-methyl-5-oxo-5H,6H,7H-pyrrolo[3,4-b]pyridin-2-yl]piperidin-4-yl}oxy)cyclohexyl]methyl}-3,8-diazabicyclo[3.2.1]octan-8-yl)-4-(trifluoromethyl)-2,3-dihydro-1H-isoindol-2-yl]phenyl}cyclobutane-1-carbonitrile] | 5 to 50 | < 35 |

Further lines, results first:

| DC50 [nM] | Dmax [%] | SMILES |
| --- | --- | --- |
| > 500 |  | CC1c2c(cc(CN3CCN(C[C@H]4CC[C@H](OC5CCN(c6ccc7c(c6F)CN(C6CCC(=O)NC6=O)C7=O)CC5)CC4)CC3(C)C)cc2C(F)(F)F)C(=O)N1c1cccc(C2(Cc3nncn3C)COC2)c1 (stereo partly drawn) [Example 279, 3-[4-fluoro-1-oxo-5-(4-{[(1r, 4r)-4-[(3,3-dimethyl-4-{[1-methyl-2-(3-{3-[(4-methyl-4H-1,2,4-triazol-3-yl)methyl]oxetan-3-yl}phenyl)-3-oxo-7-(trifluoromethyl)-2,3-dihydro-1H-isoindol-5-yl]methyl}piperazin-1-yl)methyl]cyclohexyl]oxy}piperidin-1-yl)-2,3-dihydro-1H-isoindol-2-yl]piperidine-2,6-dione] |
| < 5 | > 70 | Cn1cnnc1CC(C)(C)c1cccc(N2Cc3c(cc(CN4CCC[C@H](CN5CCN(C[C@H]6CC[C@@H](OC7CCN(c8ccc9c(c8F)CN(C8CCC(=O)NC8=O)C9=O)CC7)CC6)CC5)C4)cc3C(F)(F)F)C2=O)c1 (stereo partly drawn) [Example 164, 3-[4-fluoro-1-oxo-5-(4-{[(1r,4r)-4-[(4-{[(3S)-1-[(2-{3-[2-methyl-1-(4-methyl-4H-1,2,4-triazol-3-yl)propan-2-yl]phenyl}-3-oxo-7-(trifluoromethyl)-2,3-dihydro-1H-isoindol-5-yl)methyl]piperidin-3-yl]methyl}piperazin-1-yl)methyl]cyclohexyl]oxy}piperidin-1-yl)-2,3-dihydro-1H-isoindol-2-yl]piperidine-2,6-dione] |
| > 500 |  | Cn1cnnc1CC1(c2cccc(N3Cc4c(cc(CN5CCC[C@H](CN6CC[C@@H](OC7CCN(c8ccc9c(c8F)CN(C8CCC(=O)NC8=O)C9=O)CC7)CC6(C)C)C5)cc4C(F)(F)F)C3=O)c2)CC(C#N)C1 (single isomer, unassigned) [Example 291, (1r**,3r**)-3-[3-(6-{[(3S)-3-{[(4R*)-4-({1-[2-(2,6-dioxopiperidin-3-yl)-4-fluoro-1-oxo-2,3-dihydro-1H-isoindol-5-yl]piperidin-4-yl}oxy)-2,2-dimethylpiperidin-1-yl]methyl}piperidin-1-yl]methyl}-1-oxo-4-(trifluoromethyl)-2,3-dihydro-1H-isoindol-2-yl)phenyl]-3-[(4-methyl-4H-1,2,4-triazol-3-yl)methyl]cyclobutane-1-carbonitrile] |
| 5 to 50 | 35 to 70 | Cc1cc(C2CCN(CC3CCC4(CC3)CN(c3cc5c(c(C(F)(F)F)c3)CN(c3cccc([C@]6(Cc7nncn7C)C[C@@H](C#N)C6)c3)C5=O)C4)CC2)c(F)c2c1C(=O)N(C1CCC(=O)NC1=O)C2 (stereo partly drawn) [Example 272, (1r,3r)-3-(3-{6-[7-({4-[2-(2,6-dioxopiperidin-3-yl)-4-fluoro-7-methyl-1-oxo-2,3-dihydro-1H-isoindol-5-yl]piperidin-1-yl}methyl)-2-azaspiro[3.5]nonan-2-yl]-1-oxo-4-(trifluoromethyl)-2,3-dihydro-1H-isoindol-2-yl}phenyl)-3-[(4-methyl-4H-1,2,4-triazol-3-yl)methyl]cyclobutane-1-carbonitrile] |
| > 500 |  | Cc1cc(N2CCC(CN3CCC4(CC3)CN(c3ccc5cn(-c6cccc(C7(Cc8nncn8C)COC7)c6)nc5c3)C4)CC2)c(F)c2c1C(=O)N(C1CCC(=O)NC1=O)C2 (stereo not drawn) [Example 261, 3-{4-fluoro-7-methyl-5-[4-({2-[2-(3-{3-[(4-methyl-4H-1,2,4-triazol-3-yl)methyl]oxetan-3-yl}phenyl)-2H-indazol-6-yl]-2,7-diazaspiro[3.5]nonan-7-yl}methyl)piperidin-1-yl]-1-oxo-2,3-dihydro-1H-isoindol-2-yl}piperidine-2,6-dione] |
| < 5 | 35 to 70 | CC1c2nc(N3CCC(O[C@H]4CC[C@H](CN5C[C@H]6C[C@@H]5CN6Cc5cc6c(c(C(F)(F)F)c5)CN(c5cccc(C7(Cc8nncn8C)CC7)c5)C6=O)CC4)CC3)ccc2C(=O)N1C1CCC(=O)NC1=O (stereo partly drawn) [Example 222, 3-[7-methyl-5-oxo-2-(4-{[(1r,4r)-4-{[(1R,4R)-5-{[2-(3-{1-[(4-methyl-4H-1,2,4-triazol-3-yl)methyl]cyclopropyl}phenyl)-3-oxo-7-(trifluoromethyl)-2,3-dihydro-1H-isoindol-5-yl]methyl}-2,5-diazabicyclo[2.2.1]heptan-2-yl]methyl}cyclohexyl]oxy}piperidin-1-yl)-5H,6H,7H-pyrrolo[3,4-b]pyridin-6-yl]piperidine-2,6-dione] |
| 5 to 50 | < 35 | COc1c(N2CCC(C(=O)N3CCC4(CC3)CN(c3cc5c(c(C(F)(F)F)c3)CN(c3cccc(C6(Cc7nncn7C)COC6)c3)C5=O)C4)CC2)ccc2c1CN(C1CCC(=O)NC1=O)C2=O (stereo not drawn) [Example 265, 3-[4-methoxy-5-(4-{2-[2-(3-{3-[(4-methyl-4H-1,2,4-triazol-3-yl)methyl]oxetan-3-yl}phenyl)-3-oxo-7-(trifluoromethyl)-2,3-dihydro-1H-isoindol-5-yl]-2,7-diazaspiro[3.5]nonane-7-carbonyl}piperidin-1-yl)-1-oxo-2,3-dihydro-1H-isoindol-2-yl]piperidine-2,6-dione] |
